Experimental data as given in patent US10799456B2, “Multiple drug lipid nanoparticle composition and related methods for extended drug levels in blood and lymph tissue” (priority 2015, dated 2020).
Read-outs that look alike come from different tables or passages of the source.

Key:
[1] = Intracellular drug concentration in inguinal lymph node mononuclear cells (LNMCs); conditions: for Kp at 24 h / concentration at 24 h: male, Macaca nemestrina, in vivo; for Kp at 24 h: LN/plasma ratio; for concentration at 24 h: sc, Mean drug concentration, Lymph node
Experimental: Four macaques were divided into two treatment groups (two animals per group). […] Data were normalized to the anti-HIV LNP dose for comparative analysis.
Plasma was removed, PBMCs were isolated by the density gradient method, and cells were aliquoted into pellets of approximately 2 million PBMCs each. An inguinal lymph node was surgically excised 24 h after drug administration (n=2 per treatment), LNMCs were isolated by passage through a 100-lm nylon cell strainer (Corning, Tewksbury, Mass.), and cells were aliquoted into pellets of approximately 1-2 million LNMCs each. All samples were stored at −80° C. prior to drug analysis.
Plasma concentrations of all three drugs were analyzed simultaneously by liquid chromatography-tandem mass spectrometry using a recently published method. […] Antimicrob Agents Chemother 2014; 58(5):2675-2680, incorporated herein by reference in its entirety. PBMC and LNMC pellets were lysed using 200 μl water/methanol (1:1 v/v), sonicated for 10 min, and then extracted and analyzed using the same method as cited above. Intracellular concentrations were converted to ng/ml with the assumption that each cell has a volume of 4×10^−9 ml. Alberts B, Johnson A, Lewis J, et al. Molecular Biology of the Cell, 4 ed. Garland Science, New York, 2002, incorporated herein by reference in its entirety.

[2] = Tables 18 and 19; cited from earlier work
[3] = Plasma time course of ATV/RTV/TFV lipid nanoparticles in primates; format: in vivo, Macaca nemestrina; conditions: for AUC fraction (% total) 8-168 h: male, Macaca nemestrina, in vivo, sc
Experimental: All animal procedures were performed under an approved protocol reviewed by the University of Washington Institutional Animal Care and Use Committee. […] ATV, RTV, and TFV in the plasma were extracted in duplicate and analyzed with a liquid chromatography-mass spectrometry assay with a validated reverse phase HPLC/MS/MS method, similar to that of lopinavir (LPV), RTV, and TFV. […] Antimicrobial agents and chemotherapy. 2014. The linear trapezoidal method was used to calculate the area under the plasma drug concentration-time curve (AUC) for ATV, RTV, and TFV during the time course, which was close to 168 h post-dosing. […] All drugs in buffer and plasma were analyzed using a validated HPLC/MS/MS analytical method, capable of analyzing […], and TFV. The one-step analysis for LPV, RTV, and TFV was published previously. […] Antimicrobial agents and chemotherapy. 2014. Briefly, the HPLC system was outfitted with a Shimadzu 20AD HPLC (Shimadzu Scientific Instruments, Inc., Pleasanton, Calif.). […] Multiple reaction monitoring (MRM) was used to detect transition ions from a specific precursor ion to product ion. The analytes were detected using the following m/z transitions: 705.5/168.2 for ATV, 548.3/392.3 for DRV, 721.3/296.1 for RTV, 288.1/176 for TFV, and 238.1/193.2 for cyheptamide.

[4] = test system: HIV-2(287) replication; test: Antiviral activity in HIV-infected CEM-174 cells; format: cell-based
Experimental: The antiviral activity of the three-drug combination in soluble or LNP form was evaluated in HIV-infected CEM-174 cells as described previously. […] J Acquir Immune Defic Syndr 2003; 34(4):387-397, incorporated herein by reference in its entirety. […] The dose of drugs added to cells represents the sum of bound and unbound drugs in these anti-HIV LNP formulations.

[5] = test system: HIV-1; test: microbe, parasite or virus in culture
[6] = Drug incorporation efficiency into lipid-drug nanoparticles (dialysis); format: physicochemical; conditions: LNPs with ATV + RTV + TFV (2:1:3); for Incorporation efficiency (%): laboratory 0.2 mL scale; for Incorporation efficiency (%) / Drug incorporation (% total): preclinical 45 mL scale
Experimental: J Acquir Immune Defic Syndr. […] Journal of pharmaceutical sciences. […] The AAPS journal. […] Residual solvent was removed overnight by vacuum desiccation. The dried lipid-drug film was then rehydrated with 0.9% NaCl containing 20 mM sodium bicarbonate (pH 7.4). The lipid-drug samples were allowed to hydrate at 60° C. for 2 h. Then samples were sonicated (laboratory scale) or homogenized (preclinical scale) to achieve a homogenous suspension.
The incorporation efficiency was calculated as the ratio of the amount of incorporated drug over the total amount of drug loaded multiplied by 100%.

[7] = literature, cited from earlier work
[8] = cited from earlier work
[9] = reported values; cited from earlier work
[10] = Intracellular drug concentration in peripheral blood mononuclear cells (PBMCs); format: in vivo, Macaca nemestrina
Experimental: Plasma concentrations of all three drugs were analyzed simultaneously by liquid chromatography-tandem mass spectrometry using a recently published method. […] PBMC and LNMC pellets were lysed using 200 μl water/methanol (1:1 v/v), sonicated for 10 min, and then extracted and analyzed using the same method as cited above. Intracellular concentrations were converted to ng/ml with the assumption that each cell has a volume of 4×10^−9 ml.

[11] = Plasma drug exposure of three multi-drug lipid formulations vs free drug in primates; conditions: for Lipid/Free Ratio: total AUC
[12] = Human immunodeficiency virus 2, CEM174, LPV:RTV:PMPA fixed 1:1:0.5 (m/m/m), LNP form, read-out: EC50 (nM), Drug-lipid nanoparticles with 3 drug combination
[13] = Human immunodeficiency virus 2, CEM174, LPV:RTV:PMPA fixed 1:1:0.5 (m/m/m), free form, read-out: EC50 (nM), Soluble 3 drug combination
[14] = Human immunodeficiency virus 1, read-out: EC50 in LNP form
[15] = Human immunodeficiency virus 1, read-out: EC50 in free form

CC(C)c1nc(CN(C)C(=O)N[C@H](C(=O)N[C@@H](Cc2ccccc2)C[C@H](O)[C@H](Cc2ccccc2)NC(=O)OCc2cncs2)C(C)C)cs1 [Ritonavir (RTV), Ritonavir]
Kp at 24 h ([1]; Free drug treatment, 24 h): 5.5
concentration at 24 h ([1]; Anti-HIV LNP treatment): 1640 ± 19 ng/mL
concentration at 24 h ([1]; Free drug treatment): 32.6 ± 32.6 ng/mL
LogP [2]: 6
AUC fraction (% total) 8-168 h [3]: 80.4%
AUC 0-8 h ([3]; plasma, average of two primates, sc ATV/RTV/TFV LNPs 25/12.8/15.3 mg/kg): 339.1 ng·h/mL
EC50 [4, 12]: 3 ± 0.8 nM
EC50 [4, 13]: 98 ± 0.3 nM
EC50 ([4]; Human immunodeficiency virus 2, CEM174, read-out: EC50 (nM), Single agent controls, single agent): 530 ± 0.2 nM
EC50 ([4]; read-out: EC50 (nM), Single agent controls, single agent): 1040 nM
EC50 [5, 14]: 30 ± 0.8 nM
EC50 [5, 15]: 98 ± 0.3 nM

C[C@H](Cn1cnc2c(N)ncnc21)OCP(=O)(O)O [Tenofovir (TFV), [(2R)-1-(6-aminopurin-9-yl)propan-2-yl]oxymethylphosphonic acid]
LNP/free ratio, mononuclear cells of inguinal nodes ([1]; 24 h): 0.7
Ratio comparison between treatments (LNP/free), Lymph node ([1]; 24 h): 0.7
LNP/free ratio, mononuclear cells of inguinal nodes ([1]; 24 h, listed as TFV): 0.7
Kp at 24 h ([1]; Anti-HIV LNP treatment, 24 h): 0.1
Kp at 24 h ([1]; Free drug treatment, 24 h): 284
concentration at 24 h ([1]; Anti-HIV LNP treatment): 190 ± 22.8 ng/mL
concentration at 24 h ([1]; Free drug treatment): 256 ± 31.5 ng/mL
Incorporation efficiency (%) [6]: 2.4 ± 0.1%
Incorporation efficiency (%) ([6]; listed as TFV): about 2.4%
Incorporation efficiency (%) / Drug incorporation (% total) [6]: 6.1 ± 0.8%
Incorporation efficiency (%) / Drug incorporation (% total) ([6]; listed as tenofovir): 6.1±0.8%
final % drug association ([7]; double emulsion nano-precipitate method): less than 3%
association of hydrophilic drug ([7]; phosphatidylcholine with stearylamine, particles up to ˜2000 nm): 70%
Water solubility @ 25° C. [8]: 13.3 g/L
% Drug Association to Particles, Liposomes [9]: ~5%
AUC fraction (% total) 8-168 h [3]: 97.4%
LNP/free ratio, mononuclear cells in blood ([10]; 0 h): 1.0
Lipid/Free Ratio, PBMCs ([10]; 0 h): 1
LNP/free ratio, mononuclear cells in blood ([10]; 0.5 h): 0.3
Lipid/Free Ratio, PBMCs ([10]; 0.5 h): 0.3
LNP/free ratio, mononuclear cells in blood ([10]; 1 h): 0.4
Lipid/Free Ratio, PBMCs ([10]; 1 h): 0.4
LNP/free ratio, mononuclear cells in blood ([10]; 3 h): 0.5
LNP/free ratio, mononuclear cells in blood ([10]; 5 h): 4.6
Lipid/Free Ratio, PBMCs ([10]; 5 h): 4.6
LNP/free ratio, mononuclear cells in blood ([10]; 8 h): 59.0
LNP/free ratio, mononuclear cells in blood ([10]; 8 h, listed as PMPA): over 50
LNP/free ratio, mononuclear cells in blood ([10]; 8 h, listed as TFV): over 50
LNP/free ratio, mononuclear cells in blood ([10]; 24 h): 70.0
Lipid/Free Ratio, PBMCs ([10]; 24 h): 70
LNP/free ratio, mononuclear cells in blood ([10]; 48 h): >227.0
LNP/free ratio, mononuclear cells in blood ([10]; 168 h): >25.0
Lipid/Free Ratio, PBMCs ([10]; 168 h): >25.0
EC50 [4, 12]: 1.5 ± 0.1 nM
EC50 [4, 13]: 49 ± 0.2 nM
EC50 ([4]; read-out: EC50 (nM), Single agent controls, single agent, listed as PMPA): 1150 ± 0.7 nM
EC50 ([4]; read-out: EC50 (nM), Single agent controls, single agent, listed as Tenofovir (PMPA/TFV)): 100 to 6000 nM
Lipid/Free Ratio ([11]; ATZ/RTV/TFV combination): 25.2
Lipid/Free Ratio ([11]; LPV/RTV/TFV combination): 13.1
fold increase in plasma exposure, lipid-stabilized vs free drug ([11]; across drug combinations): 10- to 20 fold
EC50 [5, 14]: 15 ± 0.1 nM
EC50 [5, 15]: 49 ± 0.2 nM
